Measurements: US6770287B1, “Biocidal cellulosic material” (The Regents of the University of California, priority 2000, dated 2004)

Test system: S. aureus
Assay: AATCC Test Method 100 quantitative antibacterial test (bacterial reduction)
Format: cell-based, Staphylococcu aureus (ATCC 5368)
Conditions: contact time 60 min
From the text: AATCC Test Method 100 was adopted in this study. According to this test method, four pieces of staked circular fabric swatches 4.8±0.1 (about one grams) were inoculated with 1.0±0.1 milliliter of inoculum in a 250 milliliter jar. The inoculum was a nutrient broth culture containing over 1.0×10^6 clone forming units (CFU) of organisms. After the swatches were inoculated, they were neutralized by 100 milliliter of a 0.02% sodium thiosulfate solution in the jar. The contact time was the time between inoculation and neutralization. The jar was vigorously shaken and the neutralized solution was diluted in serial. The dilutions, usually 100, 101, and 102, were plated on nutrient agar and incubated for 18-24 hours at 37° C. The number of bacteria recovered from the inoculated finished fabrics was counted and compared with that from untreated fabrics. Six log reduction means the total inactivation of bacteria, and one log reduction means that finished fabrics reduced bacteria counts from 106 CFU to 105 CFU.
Finished fabrics prepared from solutions containing 1%-6% of monomethylol-5,5-dimethylhydantoin following the protocol set forth in Example 1 with pickup rates below 1% have been tested.
Fabrics finished in accordance with the protocol set forth in Example II with Anti-2, i.e., 1,3-dimethylol-5,5-dimethylhydantoin, were also tested with AATCC test method 100, which was briefly described in Example IV. In the tests, a diluted CLOROX® solution containing 0.01 % active chlorine was used to chlorinate the finished fabrics.

CC1(C)C(=O)N(CO)C(=O)N1CO [Anti-2, 1,3-dimethylol-5,5-dimethylhydantoin]
6 log: Durable Antibacterial Properties After fifteen washes S. aur. (Anti-2 2%, #400) | Durable Antibacterial Properties After five washes S. aur. (Anti-2 2%, #400) | Durable Antibacterial Properties After ten washes S. aur. (Anti-2 2%, #400) | Durable Antibacterial Properties After twenty washes S. aur. (Anti-2 2%, #400) | Durable Antibacterial Properties After twenty washes S. aur. (Anti-2 2%, #400, last column pair) | Durable Antibacterial Properties After fifteen washes S. aur. (Anti-2 2%, #7409) | Durable Antibacterial Properties After five washes S. aur. (Anti-2 2%, #7409) | Durable Antibacterial Properties After ten washes S. aur. (Anti-2 2%, #7409) | Durable Antibacterial Properties After twenty washes S. aur. (Anti-2 2%, #7409) | Durable Antibacterial Properties After twenty washes S. aur. (Anti-2 2%, #7409, last column pair) | Durable Antibacterial Properties After fifteen washes S. aur. (Anti-2 6%, #400) | Durable Antibacterial Properties After five washes S. aur. (Anti-2 6%, #400) | Durable Antibacterial Properties After ten washes S. aur. (Anti-2 6%, #400) | Durable Antibacterial Properties After twenty washes S. aur. (Anti-2 6%, #400) | Durable Antibacterial Properties After twenty washes S. aur. (Anti-2 6%, #400, last column pair) | Durable Antibacterial Properties After fifteen washes S. aur. (Anti-2 6%, #7409) | Durable Antibacterial Properties After five washes S. aur. (Anti-2 6%, #7409) | Durable Antibacterial Properties After ten washes S. aur. (Anti-2 6%, #7409) | Durable Antibacterial Properties After twenty washes S. aur. (Anti-2 6%, #7409) | Durable Antibacterial Properties After twenty washes S. aur. (Anti-2 6%, #7409, last column pair) | Durable Antibacterial Properties After fifteen washes S. aur. (Anti-2 10%, #400) | Durable Antibacterial Properties After five washes S. aur. (Anti-2 10%, #400) | Durable Antibacterial Properties After ten washes S. aur. (Anti-2 10%, #400) | Durable Antibacterial Properties After twenty washes S. aur. (Anti-2 10%, #400) | Durable Antibacterial Properties After twenty washes S. aur. (Anti-2 10%, #400, last column pair) | Durable Antibacterial Properties After fifteen washes S. aur. (Anti-2 10%, #7409) | Durable Antibacterial Properties After five washes S. aur. (Anti-2 10%, #7409) | Durable Antibacterial Properties After ten washes S. aur. (Anti-2 10%, #7409) | Durable Antibacterial Properties After twenty washes S. aur. (Anti-2 10%, #7409) | Durable Antibacterial Properties After twenty washes S. aur. (Anti-2 10%, #7409, last column pair)
